Consider five compounds from patent US12146004B2, “Polymyxin compounds and uses thereof” (priority 2014, dated 2024).

In brackets after ≈: the same amount, converted by molar mass. Where two headings read alike, the source gives them in different places. Bridge positions count the residues as written; N and C are the ends. Square brackets hold non-standard residues; d marks the D form. Peptide text beside a SMILES is read from it. * marks the point of attachment. ξ: configuration not given here. X9 = Cc1ccc(CO[C@@H](CCN)C(=O)*)cc1; dCha = N[C@H](CC1CCCCC1)C(=O)O; Thr(3ξ) = CC(O)[C@H](N)C(=O)O; X25 = CCCCO[C@@H](CCN)C(=O)*; X24 = NCCC(Cc1ccsc1)C(=O)*; Dab = NCC[C@H](N)C(=O)O; Dap = NC[C@H](N)C(=O)O

What all share (type): cell-based
For one experiment, the system named is Acinetobacter baumannii. The procedure: (§1) To evaluate the potency and spectrum of the compounds, susceptibility testing was performed against up to nine strains of each of the Gram negative pathogens, Escherichia coli, Pseudomonas aeruginosa, Klebsiella pneumoniae and Acinetobacter baumannii.
(§2) The values in Table 2 are MIC (μg/mL) against strains of E. coli, K. pneumoniae, P. aeruginosa and A. baumanii, including strains which show elevated MICs to Polymyxin.
(§3) The values in Table 2A are MIC (μg/mL).
(§4) The in vitro activity of compounds 26 and C7 (FADDI-02) against resistant bacterial strains was compared. The resistant strains included including Escherichia coli, Pseudomonas aeruginosa, Klebsiella pneumoniae and Acinetobacter baumannii strains. The data is provided in Table 2C, where the strains are identified. The values in Table 2 are MIC (μg/mL).

The subject of another experiment is Escherichia coli. The procedure: as §1, §2, §3, §4
The next experiment concerns Klebsiella pneumoniae. The procedure: as §1, §2, §3, §4
Another experiment concerns Pseudomonas aeruginosa. The protocol:
as §1, §2, §3, §4

As to `CC(C)C[C@@H]1NC(=O)[C@@H](CC2CCCCC2)NC(=O)[C@H](CCN)NC(=O)[C@@H](NC(=O)[C@H](CCN)NC(=O)[C@@H](NC(=O)CC(CN)CC2CCCCC2)[C@@H](C)O)CCNC(=O)[C@H]([C@@H](C)O)NC(=O)[C@H](CCN)NC(=O)[C@H](CCN)NC1=O` (single isomer, unassigned) [Example 72, 4-amino-3-(cyclohexylmethyl) butanoyl polymyxin [D-cyclohexylalanine]-6 nonapeptide], in the experiment on Acinetobacter baumannii (strain 053), the “MIC A. baumanii 053” value was 64 µg/mL (≈ 55.6 µM). The “MIC A. baumanii 056” value in the experiment with Acinetobacter baumannii (strain 056) was 16 µg/mL (≈ 13.9 µM). In addition, in the experiment with Acinetobacter baumannii (strain ATCC BAA-747), the “MIC A. baumanii ATCC BAA-747” value is 0.25 µg/mL (≈ 0.217 µM). In the experiment with Acinetobacter baumannii (strain NCTC 13424), the “MIC A. baumanii NCTC 13424” value is 0.125 µg/mL (≈ 0.109 µM). In addition, the “MIC E. coli 058” value in the experiment with Escherichia coli (strain 058) came out at 2 µg/mL (≈ 1.74 µM). Further, the “MIC E. coli 061” value in the experiment with Escherichia coli (strain 061) turned out to be 8 µg/mL (≈ 6.95 µM). Besides, in the experiment with Escherichia coli (strain ATCC 25922), the “MIC E. coli ATCC 25922” value was 0.25 µg/mL (≈ 0.217 µM). For the same compound, the “MIC E. coli NCTC 9001” value in the experiment with Escherichia coli (strain NCTC 9001) was 0.25 µg/mL (≈ 0.217 µM). Further, in the experiment with Klebsiella pneumoniae (strain 063), the “MIC K. pneumoniae 063” value is 8 µg/mL (≈ 6.95 µM). In addition, the “MIC K. pneumoniae 065” value against Klebsiella pneumoniae (strain 065) worked out at 0.5 µg/mL (≈ 0.435 µM). Moreover, in the experiment on Klebsiella pneumoniae (strain ATCC 13882), the “MIC K. pneumoniae ATCC 13882” value turned out to be 0.25 µg/mL (≈ 0.217 µM). For the same compound, the “MIC P. aeruginosa 068” value against Pseudomonas aeruginosa (strain 068) amounted to 4 µg/mL (≈ 3.48 µM). In addition, in the experiment on Pseudomonas aeruginosa (strain 070), the “MIC P. aeruginosa 070” value is 8 µg/mL (≈ 6.95 µM). Moreover, the “MIC P. aeruginosa ATCC 27853” value with Pseudomonas aeruginosa (strain ATCC 27853) is 0.25 µg/mL (≈ 0.217 µM). Besides, in the experiment with Pseudomonas aeruginosa (strain CCUG 59347), the “MIC P. aeruginosa CCUG 59347” value worked out at 0.5 µg/mL (≈ 0.435 µM).
Turning to `CCCCCC/C=C/c1ccc(C[C@H]2NC(=O)[C@H](CCN)NC(=O)[C@@H](NC(=O)[C@H](CN)NC(=O)[C@@H](NC(=O)C3CNCC(CC(C)C)C3)C(C)O)CCNC(=O)[C@H]([C@@H](C)O)NC(=O)[C@H](CCN)NC(=O)[C@H](CCN)NC(=O)[C@H](CC(C)C)NC2=O)cc1` (single isomer, unassigned; isomer 2) [Example 18, (trans-5-(isobutyl-piperidine)-3-carbonyl L-Thr-L-Dap-polymyxin [D-(4-(E)-oct-1-enyl)-Phe]-6]heptapeptide Isomer 2], in the experiment with Acinetobacter baumannii, the “MIC A. baumanii 053” value came to 2 µg/mL (≈ 1.63 µM), the “MIC A. baumanii 056” value is 2 µg/mL (≈ 1.63 µM) and the “MIC A. baumanii ATCC BAA-747” value came out at 2 µg/mL (≈ 1.63 µM). In addition, in the experiment on Escherichia coli, the “MIC E. coli 058” value stood at 2 µg/mL (≈ 1.63 µM), the “MIC E. coli 059” value is 1 µg/mL (≈ 0.815 µM), the “MIC E. coli 060” value was 2 µg/mL (≈ 1.63 µM) and the “MIC E. coli 061” value was found to be 2 µg/mL (≈ 1.63 µM). In the experiment with Escherichia coli, the “MIC E. coli ATCC 25922” value was found to be 2 µg/mL (≈ 1.63 µM). In the experiment with Klebsiella pneumoniae, the “MIC K. pneumoniae 062” value stood at 2 µg/mL (≈ 1.63 µM), the “MIC K. pneumoniae 063” value was determined as 4 µg/mL (≈ 3.26 µM), the “MIC K. pneumoniae 064” value stood at 4 µg/mL (≈ 3.26 µM) and the “MIC K. pneumoniae 065” value amounted to 2 µg/mL (≈ 1.63 µM). For the same compound, in the experiment with Klebsiella pneumoniae, the “MIC K. pneumoniae 066” value stood at 2 µg/mL (≈ 1.63 µM), the “MIC K. pneumoniae 067” value is 4 µg/mL (≈ 3.26 µM) and the “MIC K. pneumoniae ATCC 4352” value worked out at 2 µg/mL (≈ 1.63 µM). In addition, in the experiment on Pseudomonas aeruginosa, the “MIC P. aeruginosa 068” value is 4 µg/mL (≈ 3.26 µM), the “MIC P. aeruginosa 070” value is 4 µg/mL (≈ 3.26 µM) and the “MIC P. aeruginosa ATCC 27853” value came to 2 µg/mL (≈ 1.63 µM).
With `CCCCO[C@@H](CCN)C(=O)N[C@H](C(=O)N[C@@H](CN)C(=O)N[C@H]1CCNC(=O)[C@H]([C@@H](C)O)NC(=O)[C@H](CCN)NC(=O)[C@H](CCN)NC(=O)[C@H](CC(C)C)NC(=O)[C@@H](CC2CCCCC2)NC(=O)[C@H](CCN)NC1=O)C(C)O` (stereo partly drawn) [Example 46, (S)-4-amino-2-butoxybutanoyl L-Thr-L-Dap-polymyxin [D-cyclohexylalanine]-6 heptapeptide.] (X25-[Thr(3ξ)][Dap][Dab][Dab][dCha]L[Dab][Dab]T; lactam 3-C), in the experiment on Acinetobacter baumannii, the “MIC A. baumanii 053” value is over 64 µg/mL, the “MIC A. baumanii 056” value is over 64 µg/mL, the “MIC A. baumanii ATCC BAA-747” value worked out at 0.125 µg/mL (≈ 0.112 µM) and the “MIC A. baumanii NCTC 13424” value was found to be 0.125 µg/mL (≈ 0.112 µM). In addition, in the experiment with Escherichia coli, the “MIC E. coli 058” value is 8 µg/mL (≈ 7.19 µM) and the “MIC E. coli ATCC 25922” value was found to be 0.125 µg/mL (≈ 0.112 µM). Moreover, in the experiment with Klebsiella pneumoniae, the “MIC K. pneumoniae 063” value was over 64 µg/mL, the “MIC K. pneumoniae 065” value is 2 µg/mL (≈ 1.8 µM) and the “MIC K. pneumoniae ATCC 13882” value is 0.25 µg/mL (≈ 0.225 µM). Further, in the experiment with Pseudomonas aeruginosa, the “MIC P. aeruginosa 068” value was determined as 16 µg/mL (≈ 14.4 µM), the “MIC P. aeruginosa 070” value worked out at 32 µg/mL (≈ 28.8 µM), the “MIC P. aeruginosa ATCC 27853” value was found to be 0.5 µg/mL (≈ 0.449 µM) and the “MIC P. aeruginosa CCUG 59347” value turned out to be 0.5 µg/mL (≈ 0.449 µM).
`CC(C)C[C@@H]1NC(=O)[C@@H](CC2CCCCC2)NC(=O)[C@H](CCN)NC(=O)[C@@H](NC(=O)[C@H](CN)NC(=O)[C@@H](NC(=O)C(CCN)Cc2ccsc2)[C@@H](C)O)CCNC(=O)[C@H]([C@@H](C)O)NC(=O)[C@H](CCN)NC(=O)[C@H](CCN)NC1=O` (stereo partly drawn) [Example 68, 4-amino-2-(thiophen-3-ylmethyl)butanoyl L-Thr-L-Dap-polymyxin [D-cyclohexylalanine]-6 heptapeptide.] (X24-T[Dap][Dab][Dab][dCha]L[Dab][Dab]T; lactam 3-C): in the experiment with Acinetobacter baumannii, the “MIC A. baumanii 053” value is over 64 µg/mL, the “MIC A. baumanii 056” value was 64 µg/mL (≈ 56.3 µM), the “MIC A. baumanii ATCC BAA-747” value was found to be 0.25 µg/mL (≈ 0.22 µM) and the “MIC A. baumanii NCTC 13424” value was 0.25 µg/mL (≈ 0.22 µM). In addition, in the experiment with Escherichia coli, the “MIC E. coli 058” value was 2 µg/mL (≈ 1.76 µM), the “MIC E. coli 061” value was 16 µg/mL (≈ 14.1 µM) and the “MIC E. coli ATCC 25922” value stood at 0.125 µg/mL (≈ 0.11 µM). In addition, in the experiment on Klebsiella pneumoniae, the “MIC K. pneumoniae 063” value came to 16 µg/mL (≈ 14.1 µM), the “MIC K. pneumoniae 065” value was 1 µg/mL (≈ 0.88 µM) and the “MIC K. pneumoniae ATCC 13882” value is 0.25 µg/mL (≈ 0.22 µM). Besides, in the experiment with Pseudomonas aeruginosa, the “MIC P. aeruginosa 068” value was found to be 1 µg/mL (≈ 0.88 µM), the “MIC P. aeruginosa 070” value was 1 µg/mL (≈ 0.88 µM), the “MIC P. aeruginosa ATCC 27853” value was determined as 0.25 µg/mL (≈ 0.22 µM) and the “MIC P. aeruginosa CCUG 59347” value stood at 0.5 µg/mL (≈ 0.44 µM).
With `Cc1ccc(CO[C@@H](CCN)C(=O)N[C@H](C(=O)N[C@@H](CN)C(=O)N[C@H]2CCNC(=O)[C@H]([C@@H](C)O)NC(=O)[C@H](CCN)NC(=O)[C@H](CCN)NC(=O)[C@H](CC(C)C)NC(=O)[C@@H](CC3CCCCC3)NC(=O)[C@H](CCN)NC2=O)[C@@H](C)O)cc1` [Example 71, (S)-4-amino-2-((4-methylbenzyl)oxy) butanoyl L-Thr-L-Dap-polymyxin [D-cyclohexylalanine]-6 heptapeptide.] (X9-T[Dap][Dab][Dab][dCha]L[Dab][Dab]T; lactam 3-C), in the experiment with Acinetobacter baumannii, the “MIC A. baumanii 053” value was 64 µg/mL (≈ 55.2 µM), the “MIC A. baumanii 056” value worked out at 32 µg/mL (≈ 27.6 µM), the “MIC A. baumanii ATCC BAA-747” value stood at 0.125 µg/mL (≈ 0.108 µM) and the “MIC A. baumanii NCTC 13424” value worked out at 0.125 µg/mL (≈ 0.108 µM). In addition, in the experiment on Escherichia coli, the “MIC E. coli 058” value was determined as 4 µg/mL (≈ 3.45 µM), the “MIC E. coli 061” value is 16 µg/mL (≈ 13.8 µM), the “MIC E. coli ATCC 25922” value was 0.125 µg/mL (≈ 0.108 µM) and the “MIC E. coli NCTC 9001” value was 0.125 µg/mL (≈ 0.108 µM). Moreover, in the experiment on Klebsiella pneumoniae, the “MIC K. pneumoniae 063” value worked out at 64 µg/mL (≈ 55.2 µM), the “MIC K. pneumoniae 065” value was 4 µg/mL (≈ 3.45 µM), the “MIC K. pneumoniae ATCC 4352” value worked out at 0.25 µg/mL (≈ 0.215 µM) and the “MIC K. pneumoniae ATCC 13882” value is 0.25 µg/mL (≈ 0.215 µM). In addition, in the experiment with Pseudomonas aeruginosa, the “MIC P. aeruginosa 068” value was 8 µg/mL (≈ 6.89 µM), the “MIC P. aeruginosa 070” value was determined as 16 µg/mL (≈ 13.8 µM), the “MIC P. aeruginosa ATCC 27853” value was determined as 0.25 µg/mL (≈ 0.215 µM) and the “MIC P. aeruginosa CCUG 59347” value amounted to 0.25 µg/mL (≈ 0.215 µM).
